Data: US9132130B2, “Purine derivative and antitumor agent using same” (ZENYAKU KOGYO KABUSHIKI KAISHA, priority 2009, dated 2015)

Assays:
[1] = tested on: P388 cells (mouse leukemia cells); experiment: in vitro antitumor activity test, P388 cells, XTT colorimetry; format: cell-based; settings: cultured 72 hours
In short: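 Cells from DBA/2 mouse ascites, in RPMI 1640 with 10% FBS and 25 mM HEPES, seeded from a 4×10^4 cells/ml suspension. Equal volume added of compound solutions prepared at 2.0×10^−9 to 2.0×10^−4 M (pre-mixing). After 72 h at 37° C, 5% CO2, growth read by XTT; GI50 (μM) is the concentration giving 50% growth inhibition.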

[2] = tested on: PC-3 cells (human prostate cancer cells); experiment: in vitro antitumor activity test, PC-3 cells, XTT colorimetry; format: cell-based; settings: PC-3 human prostate cancer cells, cultured 72 hours
In short: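 PC-3 human prostate cancer cells, seeded at 2×10^4 cells/ml and allowed to adhere for 24 h, were exposed 72 h at 37° C, 5% CO2 to compound diluted in RPMI 1640 with 10% FBS to 2.0×10^−9 to 2.0×10^−4 M (pre-addition solutions). Growth was measured by XTT colorimetry and GI50 (μM) calculated.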

[3] = tested on: B16F10 cells (mouse melanoma [malignant melanoma] cells); experiment: in vitro antitumor activity test, B16F10 cells, XTT colorimetry; format: cell-based; settings: B16-F10, cultured 72 hours
In short: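 B16F10 mouse melanoma cells were seeded from a 1×10^4 cells/ml suspension and allowed to adhere for 24 h. Compounds in DMSO were diluted in RPMI 1640 with 10% FBS to 2.0×10^−9 to 2.0×10^−4 M and incubated 72 h at 37° C, 5% CO2. XTT colorimetry gave GI50 (μM).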

[4] = tested on: WiDr cells (human colon cancer cells); experiment: in vitro antitumor activity test, WiDr cells, XTT colorimetry; format: cell-based; settings: cultured 72 hours
In short: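 Human colon cancer cells in MEM/10% FBS were seeded 3×10^4 cells/ml and allowed to adhere for 24 h, then exposed to compounds prepared at 2.0×10^−9 to 2.0×10^−4 M in RPMI 1640 for 72 h at 37° C, 5% CO2. Growth was read by XTT colorimetry and GI50 (μM) calculated.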

[5] = tested on: A549 cells (human lung cancer cells); experiment: in vitro antitumor activity test, A549 cells, XTT colorimetry; format: cell-based; settings: cultured 72 hours
In short: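 Cells seeded at 2×10^4 cells/ml in MEM + 10% FBS, 25 mM HEPES, kanamycin, allowed to adhere 24 h, then exposed to compounds (DMSO stocks diluted in RPMI 1640; prepared at 2.0×10^−9 to 2.0×10^−4 M) for 72 h at 37 °C, 5% CO2. Growth inhibition read by XTT colorimetry; GI50 (μM) calculated.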

[6] = tested on: MCF-7 cells (human breast cancer cells); experiment: antitumor activity against breast cancer cells, cell counting; format: cell-based; settings: MCF7; MCF-7 human breast cancer cells, cultured 72 hours, cell counter
Procedure: MCF-7 cells (human breast cancer cells) subcultured in a culture medium composed of a MEM medium added with 10% fetal bovine serum, 25 mM HEPES and 0.1 mg/ml kanamycin under the conditions of 37° C. and 5% carbon dioxide gas were made into single floating cells by treating with trypsin/EDTA, and a single cell suspension of 4×10^4 cells per 1 ml was prepared using the MEM medium (added with 10% fetal bovine serum, 25 mM HEPES and 0.1 mg/ml kanamycin). After dissolving the test substances (Compound 2 and Compound 7) in DMSO, they were diluted with the MEM medium (added with 10% fetal bovine serum, 25 mM HEPES and 0.1 mg/ml kanamycin) and prepared so that the concentrations were 6.4×10^−8 to 2.0×10^−5 M.
0.1 ml of the cell suspension was placed into each well of a 96-well microplate, cultured for 24 hours to allow the cells to adhere to the microplate, then 0.1 ml of the sample solutions were added, and cultured for 72 hours at 37° C. in 5% carbon dioxide gas.
Afterwards, the cells in each well were made single floating cells by treating with trypsin/EDTA, and the number of cells was counted using a cell counter to obtain the growth inhibition rate at various sample concentrations and calculate the concentrations at which growth was inhibited by 50% (GI50 values [μM]).

human lung cancer A549 = experiment: in vivo antitumor activity, nude mice transplanted with human lung cancer A549; parameters: species or system BALB/c-nu/nu mice; settings: 400 mg/kg intraperitoneally daily day 0 to day 13 (12 times), tumor volume at day 14
Procedure: Tumor tissue fragments of human lung cancer A549 (3 mm×3 mm×3 mm) were transplanted subcutaneously into the chests of six-week-old female BALB/c-nu/nu mice, and sample administration started when the tumor volume reached at least approximately 100 mm^3 (day 0). Compound 2 and Compound 7 were suspended in a 1% hydroxypropylcellulose (HPC [L]) solution using an agate mortar. 400 mg/kg of Compound 2 was orally administered daily from day 0 to day 13 (excluding day 3 and day 10, a total of 12 times). 400 mg/kg of Compound 7 was intraperitoneally administered daily from day 0 to day 13 (excluding day 4 and day 11, a total of 12 times). Tumor diameters were measured to calculate tumor volume (½×long diameter×short diameter×short diameter), and the tumor volume after 14 days (at day 14) from the start of sample administration was divided by the tumor volume at the start of the administration to calculate relative tumor growth rate. The percentage of the relative tumor growth rate of the control group with respect to the relative tumor growth rate of the group administered with Compound 2 or Compound 7 was taken as T/C (%).

SMILES	GI50 [1] [nM]	GI50 [2] [nM]	GI50 [3] [nM]	GI50 [4] [nM]	GI50 [5] [nM]	GI50 [6] [nM]	T/C (human lung cancer A549) [%]
CCc1nc2c(N(C)C)nc(SCc3ccc(OC)c(N)c3)nc2n1C [Compound 23, 2-(3-amino-4-methoxybenzylsulfanyl)-6-dimethylamino-8-ethyl-9-methyl-9H-purine]	230	130	500	440	250		
CNc1nc(SCc2ccc(OC)cc2)nc2c1ncn2C [Compound 26, 2-(4-methoxybenzylsulfanyl)-9-methyl-6-methylamino-9H-purine]	70	110	340	80	110		
CCOc1ccc(CSc2nc(N3CCOCC3)c3ncn(C)c3n2)cc1 [Compound 99, 2-(4-ethoxybenzylsulfanyl)-9-methyl-6-morpholino-9H-purine]	960	5950	1980	1290	1180		
CCN(C)c1nc(SCc2ccc(OC)c(C#N)c2)nc2c1ncn2C [Compound 85, 2-(3-cyano-4-methoxybenzylsulfanyl)-6-(N-ethyl-N-methylamino)-9-methyl-9H-purine]	70	120	120	80	140		
CCN(C)c1nc(SCc2ccc(OC)cc2)nc2c1ncn2C [Compound 75, 6-(N-ethyl-N-methylamino)-2-(4-methoxybenzylsulfanyl)-9-methyl-9H-purine]	380	560	380	380	520		
CCc1nc2c(N3CCN(N=O)CC3)nc(SCc3ccc(OC)cc3)nc2n1C [Compound 7, 8-ethyl-2-(4-methoxybenzylsulfanyl)-9-methyl-6-(4-nitrosopiperazin-1-yl)-9H-purine]	120	140	340	250	130	130	55.4
COc1ccc(CSc2nc(-n3ccnc3)c3ncn(C)c3n2)cc1 [Compound 110, 6-(imidazol-1-yl)-2-(4-methoxybenzylsulfanyl)-9-methyl-9H-purine]	470	1400	1430	790	950		
COc1ccc(CSc2nc(N(C)OC)c3ncn(C)c3n2)cc1 [Compound 105, 6-(N-methoxy-N-methylamino)-2-(4-methoxybenzylsulfanyl)-9-methyl-9H-purine]	240	560	410	260	240		
COc1ccc(CSc2nc(N(C)C)c3ncn(C)c3n2)cc1N [Compound 19, 2-(3-amino-4-methoxybenzylsulfanyl)-6-dimethylamino-9-methyl-9H-purine]	320	400	450	4040	450		

Second part, led by results:

GI50 [1] [nM]	GI50 [2] [nM]	GI50 [3] [nM]	GI50 [4] [nM]	GI50 [5] [nM]	SMILES	GI50 [6] [nM]	T/C (human lung cancer A549) [%]
170	130	320	280	230	CCOc1ccc(CSc2nc(N3CCOCC3)c3nc(CC)n(C)c3n2)cc1N [Compound 103, 2-(3-amino-4-ethoxybenzylsulfanyl)-8-ethyl-9-methyl-6-morpholino-9H-purine]		
290	280	410	350	560	CCc1nc2c(N3CCOCC3)nc(SCc3ccc(OC)cc3)nc2n1C [Compound 1, 8-ethyl-2-(4-methoxybenzylsulfanyl)-9-methyl-6-morpholino-9H-purine]		
850	910	1680	1220	1750	CCc1nc2c(N3CCOCC3)nc(SCc3ccc(OC)c(Cl)c3)nc2n1C [Compound 16, 2-(3-chloro-4-methoxybenzylsulfanyl)-8-ethyl-9-methyl-6-morpholino-9H-purine]		
720	600	1160	940	870	CCCn1c(CC)nc2c(N3CCOCC3)nc(SCc3ccc(OC)cc3)nc21 [Compound 6, 8-ethyl-2-(4-methoxybenzylsulfanyl)-6-morpholino-9-propyl-9H-purine]		
610	870	1000	1300	1400	CCc1nc2c(N(C)C)nc(SCc3ccc(OC)c(NC(C)=O)c3)nc2n1C [Compound 60, 2-(3-acetylamino-4-methoxybenzylsulfanyl)-6-dimethylamino-8-ethyl-9-methyl-9H-purine]		
1500	870	1900	3300	1600	CCc1nc2c(N3CCOCC3)nc(SCc3ccc(OC)c(NC(=O)COC)c3)nc2n1C [Compound 63, 8-ethyl-2-(3-methoxyacetylamino-4-methoxybenzylsulfanyl)-9-methyl-6-morpholino-9H-purine]		
1250	850	3910	1240	1890	CCc1ccc(CSc2nc(N3CCOCC3)c3nc(CC)n(C)c3n2)cc1 [Compound 12, 8-ethyl-2-(4-ethylbenzylsulfanyl)-9-methyl-6-morpholino-9H-purine]		
